Assay results: PubChem BioAssay (NCI)
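How tested: cells in 96-well plates exposed to compound for 48 hours at five concentrations. GI50 = concentration required for 50% inhibition of growth. TGI is the concentration that stops growth completely.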

Legend:
Experiment in all cases: DTP human tumour cell line panel, 48 h
NCI-H23 lung = system: NCI-H23 lung
NCI/ADR-RES ovarian = system: NCI/ADR-RES ovarian
HCT-15 colon = system: HCT-15 colon
HL-60(TB) leukemia = system: HL-60(TB) leukemia
MALME-3M melanoma = system: MALME-3M melanoma
SF-295 CNS = system: SF-295 CNS
SK-MEL-5 melanoma = system: SK-MEL-5 melanoma
OVCAR-3 ovarian = system: OVCAR-3 ovarian
EKVX NSCLC = system: EKVX NSCLC
HS 578T breast = system: HS 578T breast
U251 CNS = system: U251 CNS
RXF 393 renal = system: RXF 393 renal
BT-549 breast = system: BT-549 breast
SF-539 CNS = system: SF-539 CNS
PC-3 prostate = system: PC-3 prostate
IGROV1 ovarian = system: IGROV1 ovarian
TK-10 renal = system: TK-10 renal
SNB-75 CNS = system: SNB-75 CNS
HOP-62 NSCLC = system: HOP-62 NSCLC
OVCAR-5 ovarian = system: OVCAR-5 ovarian
HT29 colon = system: HT29 colon
HCC-2998 colon = system: HCC-2998 colon
SN12C renal = system: SN12C renal
HOP-92 NSCLC = system: HOP-92 NSCLC
NCI-H522 lung = system: NCI-H522 lung
UACC-62 melanoma = system: UACC-62 melanoma
T-47D breast = system: T-47D breast
OVCAR-8 ovarian = system: OVCAR-8 ovarian
A549 NSCLC = system: A549 NSCLC
SF-268 CNS = system: SF-268 CNS
786-0 renal = system: 786-0 renal
SK-MEL-28 melanoma = system: SK-MEL-28 melanoma
M14 melanoma = system: M14 melanoma
RPMI-8226 leukemia = system: RPMI-8226 leukemia
MDA-MB-435 = system: MDA-MB-435
MDA-MB-231 breast = system: MDA-MB-231 breast
CCRF-CEM leukemia = system: CCRF-CEM leukemia
OVCAR-4 ovarian = system: OVCAR-4 ovarian
KM12 colon = system: KM12 colon
LOX IMVI melanoma = system: LOX IMVI melanoma
COLO 205 colon = system: COLO 205 colon
MOLT-4 leukemia = system: MOLT-4 leukemia
NCI-H226 lung = system: NCI-H226 lung
SK-MEL-2 melanoma = system: SK-MEL-2 melanoma
A498 renal = system: A498 renal
SNB-19 CNS = system: SNB-19 CNS
UACC-257 melanoma = system: UACC-257 melanoma
K-562 leukemia = system: K-562 leukemia
ACHN renal = system: ACHN renal
UO-31 renal = system: UO-31 renal
MCF7 breast = system: MCF7 breast
HCT-116 colon = system: HCT-116 colon
NCI-H460 lung = system: NCI-H460 lung
SW-620 colon = system: SW-620 colon
SK-OV-3 ovarian = system: SK-OV-3 ovarian

In the case of `CCN1CCN(c2cc(C)nc(N(CCCNc3ccnc4cc(Cl)ccc34)Cc3ccc4c(c3)OCO4)n2)CC1`, the GI50 (NCI-H23 lung) is reported as 7.4 µM, the TGI (NCI-H23 lung) is reported as > 100 µM and the GI50 (NCI/ADR-RES ovarian) is reported as 3.22 µM. The TGI (NCI/ADR-RES ovarian) was 58.5 µM, the GI50 (HCT-15 colon) was 2240 nM and the TGI (HCT-15 colon) was 8.42 µM. It also gave a GI50 (HL-60(TB) leukemia) of 1900 nM, a TGI (HL-60(TB) leukemia) of 4 µM and a GI50 (MALME-3M melanoma) of 1870 nM. The TGI (MALME-3M melanoma) was 3.5 µM, the GI50 (SF-295 CNS) was 1910 nM and the TGI (SF-295 CNS) was 3.82 µM. It also gave a GI50 (SK-MEL-5 melanoma) of 1700 nM, a TGI (SK-MEL-5 melanoma) of 3.13 µM and a GI50 (OVCAR-3 ovarian) of 2350 nM. For the same compound, the TGI (OVCAR-3 ovarian) was 6.09 µM, the GI50 (EKVX NSCLC) was 4.56 µM and the TGI (EKVX NSCLC) was > 100 µM. For the same compound, the GI50 (HS 578T breast) was 1930 nM, the TGI (HS 578T breast) was 5.26 µM and the GI50 (U251 CNS) was 2130 nM. The TGI (U251 CNS) was 4.73 µM, the GI50 (RXF 393 renal) was 1520 nM and the TGI (RXF 393 renal) was 3.38 µM. For the same compound, the GI50 (BT-549 breast) was 2720 nM, the TGI (BT-549 breast) was 8.5 µM and the GI50 (SF-539 CNS) was 1730 nM. The TGI (SF-539 CNS) was 3.21 µM, the GI50 (PC-3 prostate) was 3.6 µM and the TGI (PC-3 prostate) was > 100 µM. For the same compound, the GI50 (IGROV1 ovarian) was 3.46 µM, the TGI (IGROV1 ovarian) was 16.7 µM and the GI50 (TK-10 renal) was 1840 nM. The TGI (TK-10 renal) was 3.87 µM, the GI50 (SNB-75 CNS) was 1590 nM and the TGI (SNB-75 CNS) was 3.57 µM. The GI50 (HOP-62 NSCLC) was 2730 nM, the TGI (HOP-62 NSCLC) was 31.6 µM and the GI50 (OVCAR-5 ovarian) was 5.32 µM. For the same compound, the TGI (OVCAR-5 ovarian) was > 100 µM, the GI50 (HT29 colon) was 1950 nM and the TGI (HT29 colon) was 5.79 µM. The GI50 (HCC-2998 colon) was 2400 nM, the TGI (HCC-2998 colon) was 5.39 µM and the GI50 (SN12C renal) was 4.13 µM. For the same compound, the TGI (SN12C renal) was > 100 µM, the GI50 (HOP-92 NSCLC) was 1610 nM and the TGI (HOP-92 NSCLC) was 4.67 µM. For the same compound, the GI50 (NCI-H522 lung) was 2030 nM, the TGI (NCI-H522 lung) was 4.76 µM and the GI50 (UACC-62 melanoma) was 1850 nM. The TGI (UACC-62 melanoma) was 3.51 µM, the GI50 (T-47D breast) was 2260 nM and the TGI (T-47D breast) was 4.88 µM. The GI50 (OVCAR-8 ovarian) was 3.19 µM, the TGI (OVCAR-8 ovarian) was 14.4 µM and the GI50 (A549 NSCLC) was 3.67 µM. For the same compound, the TGI (A549 NSCLC) was > 100 µM, the GI50 (SF-268 CNS) was 2570 nM and the TGI (SF-268 CNS) was 7.9 µM. It also gave a GI50 (786-0 renal) of 1810 nM, a TGI (786-0 renal) of 3.8 µM and a GI50 (SK-MEL-28 melanoma) of 1840 nM. The TGI (SK-MEL-28 melanoma) was 3.46 µM, the GI50 (M14 melanoma) was 1890 nM and the TGI (M14 melanoma) was 3.5 µM. It also gave a GI50 (RPMI-8226 leukemia) of 1800 nM, a TGI (RPMI-8226 leukemia) of 4.49 µM and a GI50 (MDA-MB-435) of 1770 nM. The TGI (MDA-MB-435) was 3.3 µM, the GI50 (MDA-MB-231 breast) was 1930 nM and the TGI (MDA-MB-231 breast) was 4.44 µM. For the same compound, the GI50 (CCRF-CEM leukemia) was 2380 nM, the TGI (CCRF-CEM leukemia) was 7.43 µM and the GI50 (OVCAR-4 ovarian) was 3.05 µM. For the same compound, the TGI (OVCAR-4 ovarian) was 25.1 µM, the GI50 (KM12 colon) was 4.14 µM and the TGI (KM12 colon) was > 100 µM. The GI50 (LOX IMVI melanoma) was 1890 nM, the TGI (LOX IMVI melanoma) was 3.7 µM and the GI50 (COLO 205 colon) was 1720 nM. For the same compound, the TGI (COLO 205 colon) was 3.39 µM, the GI50 (MOLT-4 leukemia) was 2840 nM and the TGI (MOLT-4 leukemia) was > 100 µM. For the same compound, the GI50 (NCI-H226 lung) was 32.8 µM, the TGI (NCI-H226 lung) was > 100 µM and the GI50 (SK-MEL-2 melanoma) was 2140 nM. It also gave a TGI (SK-MEL-2 melanoma) of 4.74 µM, a GI50 (A498 renal) of 3.66 µM and a TGI (A498 renal) of 20.8 µM. It also gave a GI50 (SNB-19 CNS) of 4.16 µM, a TGI (SNB-19 CNS) of 52 µM and a GI50 (UACC-257 melanoma) of 1720 nM. It also gave a TGI (UACC-257 melanoma) of 3.23 µM, a GI50 (K-562 leukemia) of 1910 nM and a TGI (K-562 leukemia) of 7.86 µM. The GI50 (ACHN renal) was 3.16 µM, the TGI (ACHN renal) was 10.6 µM and the GI50 (UO-31 renal) was 1510 nM. For the same compound, the TGI (UO-31 renal) was 3.08 µM, the GI50 (MCF7 breast) was 2880 nM and the TGI (MCF7 breast) was 21.5 µM. The GI50 (HCT-116 colon) was 2450 nM, the TGI (HCT-116 colon) was 13.6 µM and the GI50 (NCI-H460 lung) was 3.07 µM. For the same compound, the TGI (NCI-H460 lung) was 11.2 µM, the GI50 (SW-620 colon) was 2810 nM and the TGI (SW-620 colon) was 12.5 µM. For the same compound, the GI50 (SK-OV-3 ovarian) was 14.8 µM and the TGI (SK-OV-3 ovarian) was 34.8 µM.
